The values below are quoted from earlier work in patent US20020025341A1, “Controlled release formulation of divalproex sodium” (priority 1998, published 2002).

Data set [1] deals with plasma proteins.
For data set [2] the following is noted: patients consuming valproate.

Where two headings read alike, the source gives them in different places.

With `CCCC(CCC)C(=O)O` [valproic acid, 2-Propylpentanoic acid], the half life result was “between six and seventeen hours” (in adults); “between four and fourteen hours” (in children).

`CCCC(CCC)C(=O)O` [valproate]: the “free fraction (plasma protein binding)” value in data set [1] (at 40 μg/ml) was “approximately 10%”; in data set [1] (at 130 μg/ml), 18.5%. Also, the “patients affected by GI irritation” value in data set [2] is recorded as “up to one third of patients”.
